In patent US11045473B2, “Compositions and methods for therapy of prostate cancer using drug combinations to target polyamine biosynthesis and related pathways” (Health Research, Inc., priority 2015, dated 2021):
“Also recorded” adds a separate entry of the source.

How the values were obtained:
[1] = system: LNCaP; assay: Proliferation / IC50 by trypan blue cell counts, LNCaP; format: cell-based, human; details: for effect on cell growth: 8 and 12 days; for IC50: Homo sapiens
Experimental: (§1) A transition state analog inhibitor of MTAP, Methylthio-DaDMe-Immucillin-A (MTDIA) was previously described and shown to be effective following a 6 or 12 day treatment at ˜10 and 100 nM MTDIA when 20 uM MTA was added to the media in both lung adenocarcinoma cell lines and head and neck squamous carcinoma cell lines, respectively [Basu I, et al. J Biol Chem. 2007; 282:21477-21486; Basu I, et al. J Biol Chem. 2011; 286:4902-491]. 32]. We synthesized MTDIA and the analytical data on the synthesized compound are shown in FIGS. 8A and 8B with the scheme used for synthesis shown in FIG. 6. […] In all three cell lines, the proliferation curves after 12 days of treatment show an IC50 of MTDIA>1 mM in the absence of MTA (FIG. 5B), but in the 10-100 nM range with the addition of 10 or 20 μM MTA. […] Nanomolar range IC50 values are highlighted.
(§2) IC50—The MTAP inhibitor (3R,4S)-1-[(9-Deaza-adenin-9-yl)methyl]-3-hydroxy-4-(methylthiomethyl)-pyrrolidine, or MT-DADMe-Immucillin-A (MTDIA) was synthesized following the synthesis scheme shown in FIG. 6 and based on a known approach. Cells were seeded at 125,000 cells/well (PC-3, DU145, LNCaP) in triplicate in 2 mLs of RPMI medium supplemented with 10% fetal bovine serum, and 1% penicillin streptomycin. After 24 hours the MTDIA and/or MTA was added at the indicated concentrations. Both medium and drug were refreshed every 48 hours. Every 96 hours the cells were trypsinized, ˜2% of cells were removed and counted by trypan blue exclusion and the rest were replated into a larger vessel.

[2] = system: DU145; assay: Proliferation / IC50 by trypan blue cell counts, DU145; format: cell-based, human; details: for effect on cell growth: 8 and 12 days; for IC50: Homo sapiens
Experimental: as §1, §2

[3] = system: LNCaP xenograft; assay: LNCaP xenograft growth in nude mice, MTDIA in the drinking water; format: in vivo
Experimental: Human cell line xenografts with pharmacological treatment—1×10^6 wild type LNCaP cells were subcutaneously injected onto the flank of pelleted nude mice. At time of injection animals were randomly assigned to one of the following three groups; control, 9 or 21 mg/kg MTDIA in the drinking water with 20 mice in each group. Tumor measurements were assessed and recorded twice a week. Animals were sacrificed once tumors reached 2 cm3 or at the end point of the experiment (91 days).

[4] = system: MTAP; assay: Western blot of MTAP protein expression in FaDu; format: cell-based, human; details: 4 day IC25 and IC50 of MTDIA, presence or absence of MTA
Experimental: (§3) FIG. 9. (A) Proliferation curves for LNCaP, DU145 and PC3 treated with MTDIA in the absence or presence of 10 or 20 uM MTA, for 4 and (B) 8 days. […] (C) Western blot analysis of FaDu, LNCaP, and DU145 cells after indicated treatments of MTA (0, 10, or 20 uM) or the respective 4 day IC25 and IC50 dose of MTDIA for each cell line plus or minus MTA immunoblotted with antibodies against MTAP, SMS, and SRM, with B-actin as a loading control. Western blot images are representative of biological triplicates.
(§4) Western Blotting—Whole cell extracts were prepared in RIPA buffer (150 mM NaCl, 1.0% NP-40, 0.5% deoxycholate, 0.1% SDS, 50 mM Tris-HCl pH 8.0, 5 mM EDTA and 0.5 mM PMSF) supplemented with 1× proteinase inhibitor. Protein concentrations were determined by Bradford Assay (Thermo Scientific, Cat #1856209). […] MTAP for Westerns was purchased from Proteintech™ (Cat #11475-1-AP. SRM and SMS were purchased from Abcam® (Cat #ab111884 and ab156879). B-actin antibody for Westerns was purchased from Sigma-Aldrich (Cat #A5441) and GAPDH was from Santa Cruz Biotecnology Inc. (Cat #sc-25778). Films were scanned using the Biorad ChemiDoc XRS, and band intensities were calculated using Image Lab™. Intensity values were normalized to B-actin loading control band intensities and made relative to control treatment conditions.

[5] = system: MTAP; assay: Western blot of MTAP protein expression in LNCaP; format: cell-based, human; details: 4 day IC25 and IC50 of MTDIA, presence or absence of MTA
Experimental: as §3, §4

[6] = system: MTAP; assay: Western blot of MTAP protein expression in DU145; format: cell-based, human; details: DU145, 4 day IC25 and IC50 of MTDIA, presence or absence of MTA
Experimental: as §3, §4

[7] = system: spermine synthase; assay: Western blot of spermine synthase in FaDu; format: cell-based, human; details: treatment with MTDIA
Experimental: (§5) FIG. 9. (A) Proliferation curves for LNCaP, DU145 and PC3 treated with MTDIA in the absence or presence of 10 or 20 uM MTA, for 4 and (B) 8 days. Results of biological triplicates are shown with absolute IC50s indicated for each condition. (C) Western blot analysis of FaDu, LNCaP, and DU145 cells after indicated treatments of MTA (0, 10, or 20 uM) or the respective 4 day IC25 and IC50 dose of MTDIA for each cell line plus or minus MTA immunoblotted with antibodies against MTAP, SMS, and SRM, with B-actin as a loading control. Western blot images are representative of biological triplicates. Band intensity values normalized to B-actin relative to control conditions are indicated below the respective band.
(§6) Western Blotting—Whole cell extracts were prepared in RIPA buffer (150 mM NaCl, 1.0% NP-40, 0.5% deoxycholate, 0.1% SDS, 50 mM Tris-HCl pH 8.0, 5 mM EDTA and 0.5 mM PMSF) supplemented with 1× proteinase inhibitor. Protein concentrations were determined by Bradford Assay (Thermo Scientific, Cat #1856209). Samples were resolved on polyacrylamide gels and transferred onto PVDF membranes (Biorad, Cat #162-0177). Blots were incubated with primary antibodies overnight at 4° and with secondaries for 1.5 hours at room temperature. Signals were visualized using Pierce ECL western blotting substrate (Thermo Scientific, Cat #32209) and exposed to film. […]

[8] = system: spermine synthase; assay: Western blot of spermine synthase in LNCaP; format: cell-based, human; details: treatment with MTDIA
Experimental: as §5, §6

[9] = system: head and neck squamous carcinoma cell lines; details: 12 day treatment, 20 uM MTA added to the media; cited from earlier work

## CSC[C@H]1CN(Cc2c[nH]c3c(N)ncnc23)C[C@@H]1O [MTDIA, (3R,4S)-1-[(9-Deaza-adenin-9-yl)methyl]-3-hydroxy-4-(methylthiomethyl)-pyrrolidine]
[1]; 100 nM MTDIA, with 20 μM MTA
  effect on cell growth: dramatic effect on cell growth
[1]; 100 nM MTDIA, without MTA
  effect on cell growth: little to no effect
[1]; 100 nM MTDIA, 4 days, with or without 20 μM MTA
  effect on growth: limited effects on growth
[1]; 6 days, low concentrations of MTDIA
  blocking cell growth: no effect at blocking cell growth
[1]; 96 h, 4 days, 0 μM MTA
  IC50: > 1000 µM
[1]; 96 h, 4 days, 10 μM MTA
  IC50: > 1000 µM
[1]; 96 h, 4 days, 20 μM MTA
  IC50: 200 µM
[1]; 192 h, 8 days, 0 μM MTA
  IC50: > 1000 µM
[1]; 192 h, 8 days, 10 μM MTA
  IC50: 1 µM
[1]; 192 h, 8 days, 20 μM MTA
  IC50: 0.085 µM
[1]; 288 h, 12 days, 0 μM MTA
  IC50: > 1000 µM
[1]; 288 h, 12 days, 10 μM MTA
  IC50: 0.011 µM
[1]; 288 h, 12 days, 20 μM MTA
  IC50: 0.014 µM
[1]; 288 h, 12 days, with 10 or 20 μM MTA
  IC50: 0.01 to 0.1 µM
[2]; DU145, 100 nM MTDIA, with 20 μM MTA
  effect on cell growth: dramatic effect on cell growth
[2]; DU145, 100 nM MTDIA, without MTA
  effect on cell growth: little to no effect
[2]; DU145, 100 nM MTDIA, 4 days, with or without 20 μM MTA
  effect on growth: limited effects on growth
[2]; DU145, 6 days, low concentrations of MTDIA
  blocking cell growth: no effect at blocking cell growth
[2]; DU-145, 96 h, DU145, 4 days, 0 μM MTA
  IC50: > 1000 µM
[2]; DU-145, 96 h, DU145, 4 days, 10 μM MTA
  IC50: > 1000 µM
[2]; DU-145, 96 h, DU145, 4 days, 20 μM MTA
  IC50: > 1000 µM
[2]; DU-145, 192 h, DU145, 8 days, 0 μM MTA
  IC50: > 1000 µM
[2]; DU-145, 192 h, DU145, 8 days, 10 μM MTA
  IC50: 0.022 µM
[2]; DU-145, 192 h, DU145, 8 days, 20 μM MTA
  IC50: 590 µM
[2]; DU-145, 288 h, DU145, 12 days, 0 μM MTA
  IC50: > 1000 µM
[2]; DU-145, 288 h, DU145, 12 days, 10 μM MTA
  IC50: 0.014 µM
[2]; DU-145, 288 h, DU145, 12 days, 20 μM MTA
  IC50: 0.01 µM
[2]; DU-145, 288 h, DU145, 12 days, with 10 or 20 μM MTA
  IC50: 0.01 to 0.1 µM
[3]; 21 mg/kg MTDIA daily in the drinking water, vs untreated control and 9 mg/kg dose
  xenograft growth: significant (p<0.001) block in xenograft growth; also recorded: dramatically blocked LNCaP xenograft growth
[3]; 21 mg/kg group, drug removed at day 61, carried out to day 91
  xenograft growth after drug removal: significant block in xenograft growth was maintained
[4]
  MTAP expression: downregulates MTAP
[5]
  MTAP expression: upregulate expression of MTAP
[6]
  MTAP expression: upregulate expression of MTAP
[7]
  spermine synthase expression: downregulated
[8]
  spermine synthase expression: upregulated
[9]
  effective concentration: ~100 nM
